Legend:
[1] = test system: AβMRF; type: cell-based, S. cerevisiae
[2] = test system: Aβm1MRF; type: cell-based, S. cerevisiae
[3] = test system: Aβm2MRF; type: cell-based, S. cerevisiae
[4] = test system: AβMRF; type: cell-based, S. cerevisiae; remark: listed apart in the source
[5] = target: Hsp104 (Saccharomyces cerevisiae, UniProt P31539); conditions: cited from earlier work
[6] = target: the molecule itself; experiment: SDS electrophoresis (1% SDS, room temperature) and immunoblot of yeast lysates
[7] = target: Hsp104 (yeast chaperone) (yeast S. cerevisiae, UniProt P31539 1-908); experiment: co-immunoprecipitation from yeast lysate with anti-HA agarose beads, immunoblot with anti-Hsp104
Description: FIG. 7. […] Co-precipitated proteins were eluted and analyzed by immunoblotting with anti-RF and anti-Hsp104 antibodies.
Following incubation, the beads were washed three times with 0.5 ml of phosphate buffered saline containing 0.05% Tween 20 to remove the non-specifically bound proteins.

[8] = target: the molecule itself; experiment: self-oligomerization; SDS electrophoresis and immunoblot of yeast lysates

Hsp104 (yeast chaperone), sequence (P31539 whole entry): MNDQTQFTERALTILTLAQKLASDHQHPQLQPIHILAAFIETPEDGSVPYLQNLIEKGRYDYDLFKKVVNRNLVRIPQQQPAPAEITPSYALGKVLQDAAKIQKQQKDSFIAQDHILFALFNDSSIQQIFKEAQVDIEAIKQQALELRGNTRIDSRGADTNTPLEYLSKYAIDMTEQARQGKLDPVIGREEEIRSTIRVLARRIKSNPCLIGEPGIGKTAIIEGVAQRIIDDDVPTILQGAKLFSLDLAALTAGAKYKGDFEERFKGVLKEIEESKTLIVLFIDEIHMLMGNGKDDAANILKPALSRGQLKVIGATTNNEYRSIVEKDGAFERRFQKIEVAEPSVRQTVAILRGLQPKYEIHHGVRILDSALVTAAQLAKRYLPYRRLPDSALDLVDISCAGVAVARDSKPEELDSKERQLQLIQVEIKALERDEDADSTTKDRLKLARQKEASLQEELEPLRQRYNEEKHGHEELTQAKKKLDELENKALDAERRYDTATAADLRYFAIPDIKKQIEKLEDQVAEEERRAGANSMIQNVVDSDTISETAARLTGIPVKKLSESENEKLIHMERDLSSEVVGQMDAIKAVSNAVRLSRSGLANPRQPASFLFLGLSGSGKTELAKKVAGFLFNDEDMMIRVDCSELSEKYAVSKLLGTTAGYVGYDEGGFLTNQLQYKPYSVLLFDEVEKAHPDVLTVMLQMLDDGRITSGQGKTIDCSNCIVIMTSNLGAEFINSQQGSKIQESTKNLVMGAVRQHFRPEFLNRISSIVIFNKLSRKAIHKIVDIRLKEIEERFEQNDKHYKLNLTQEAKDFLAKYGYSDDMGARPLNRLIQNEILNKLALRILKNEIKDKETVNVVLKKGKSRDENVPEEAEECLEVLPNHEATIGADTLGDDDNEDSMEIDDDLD
Hsp104, sequence (P31539 whole entry): as above

guanidine hydrochloride
amount of AβMRF oligomers [1]: dramatically increased
monomeric pool of AβMRF [1]: depleting the monomeric pool
amount of Aβm1MRF oligomers [2]: dramatically increased
monomeric pool of Aβm1MRF [2]: depleting the monomeric pool
effect on oligomers/monomers of control Aβm2MRF protein [3]: No such effect was detected
oligomerization of AβMRF in the absence of HSP104 [4]: stimulated oligomerization of AβMRF
ATPase activity of Hsp104 [5]: inhibited by millimolar concentrations

B1: MRF (HA-tagged Sup35p without the 123 N-terminal amino acids, plasmid p1366) (other, yeast S. cerevisiae, UniProt P05453 124-253, looked up, not shown: small tags and cut ends)
chain: MSLNDFQKQQKQAAPKPKKTLKLVSSSGIKLANATKKVGTKPAESDKKEEEKSAETKEPTKEPTKVEEPVKKEEKPVQTEEKTEEKSELPKVEDLKISESTHNTNNANVTSADALIKEQEEEVDDEVVNDMFGGKDHVSLIFMGHVDAGKSTMGGNLLYLTGSVDKRTIEKYEREAKDAGRQGWYLSWVMDTNKEERNDGKTIEVGKAYFETEKRRYTILDAPGHKMYVSEMIGGASQADVGVLVISARKGEYETGFERGGQTREHALLAKTQGVNKMVVVVNKMDDPTVNWSKERYDQCVSNVSNFLRAIGYNIKTDVVFMPVSGYSGANLKDHVDPKECPWYTGPTLLEYLDTMNHVDRHINAPFMLPIAAKMKDLGTIVEGKIESGHIKKGQSTLLMPNKTAVEIQNIYNETENEVDMAMCGEQVKLRIKGVEEEDISPGFVLTSPKNPIKSVTKFVAQIAIVELKSIIAAGFSCVMHVHTAIEEVHIVKLLHKLEKGTNRKSKKPPAFAKKGMKVIAVLETEAPVCVETYQDYPQLGRFTLRDQGTTIAIGKIVKIAE
notes: domain: M;domain: RF; also called HA-tagged MRF; Sup35p without the N-terminal prion domain
binding result [6]: no binding
binding result [7]: no binding

B2: Aβm1MRF (Aβ42 F19,20T MRF, plasmid p1397) (other, yeast S. cerevisiae, not shown: small tags and cut ends)
chain: MDAEFRHDSGYEVHHQKLVTTAEDVGSNKGAIIGLMVGGVVIAMSLNDFQKQQKQAAPKPKKTLKLVSSSGIKLANATKKVGTKPAESDKKEEEKSAETKEPTKEPTKVEEPVKKEEKPVQTEEKTEEKSELPKVEDLKISESTHNTNNANVTSADALIKEQEEEVDDEVVNDMFGGKDHVSLIFMGHVDAGKSTMGGNLLYLTGSVDKRTIEKYEREAKDAGRQGWYLSWVMDTNKEERNDGKTIEVGKAYFETEKRRYTILDAPGHKMYVSEMIGGASQADVGVLVISARKGEYETGFERGGQTREHALLAKTQGVNKMVVVVNKMDDPTVNWSKERYDQCVSNVSNFLRAIGYNIKTDVVFMPVSGYSGANLKDHVDPKECPWYTGPTLLEYLDTMNHVDRHINAPFMLPIAAKMKDLGTIVEGKIESGHIKKGQSTLLMPNKTAVEIQNIYNETENEVDMAMCGEQVKLRIKGVEEEDISPGFVLTSPKNPIKSVTKFVAQIAIVELKSIIAAGFSCVMHVHTAIEEVHIVKLLHKLEKGTNRKSKKPPAFAKKGMKVIAVLETEAPVCVETYQDYPQLGRFTLRDQGTTIAIGKIVKIAE
notes: domain: M;domain: RF; also called Aβ^F19,20TMRF
binding result [8]: binds

— US20100196932A1, “Yeast Reporter System” (THE BOARD OF TRUSTEES OF THE UNIVERSITY OF ILLINOIS, priority 2006, published 2010)
